Test results taken from ChEMBL document CHEMBL2086344, “Halicloic acids A and B isolated from the marine sponge Haliclona sp. collected in the Philippines inhibit indoleamine 2,3-dioxygenase” (J Nat Prod, 2012).
pIC50: −log10 of the molar value. Activity calls are given as the source filed them. The calls are words filed in the database; no cut-off is given here.

Target: T1, Indoleamine 2,3-dioxygenase 1 (Homo sapiens, UniProt P14902)
Experiment: Inhibition of recombinant human IDO expressed in Escherichia coli using L-tryptophan as substrate at 200 uM after 60 mins by spectrophotometry
Target sequence in this assay (P14902 whole entry, looked up): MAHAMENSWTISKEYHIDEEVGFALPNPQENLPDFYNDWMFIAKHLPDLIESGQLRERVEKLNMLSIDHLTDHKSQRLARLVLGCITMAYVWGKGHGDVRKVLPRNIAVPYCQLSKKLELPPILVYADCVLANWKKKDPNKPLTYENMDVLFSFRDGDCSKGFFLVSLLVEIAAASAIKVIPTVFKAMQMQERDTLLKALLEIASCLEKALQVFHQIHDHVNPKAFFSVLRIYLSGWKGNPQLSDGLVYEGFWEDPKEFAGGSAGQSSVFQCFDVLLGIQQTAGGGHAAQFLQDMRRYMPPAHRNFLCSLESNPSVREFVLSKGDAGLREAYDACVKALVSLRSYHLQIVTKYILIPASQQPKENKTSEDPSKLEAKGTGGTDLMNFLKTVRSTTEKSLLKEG

| SMILES | inhibition |
| --- | --- |
| O=C(O)C(O)c1ccccc1 (stereo not drawn) | inactive |
| O=Cc1ccc(O)cc1 | inactive |
| O=Cc1ccccc1 | inactive |
| O=C(O)C(O)c1ccc(O)cc1 (stereo not drawn) | inactive |

Target: T1, Indoleamine 2,3-dioxygenase 1
Experiment: Inhibition of recombinant human IDO expressed in Escherichia coli using L-tryptophan as substrate after 60 mins by spectrophotometry
Target sequence in this assay (P14902 whole entry): as the sequence (P14902 whole entry, looked up) above

| SMILES | pIC50 |
| --- | --- |
| CC1(C)CCC[C@]2(C)O[C@H]3CC[C@@]4(C)[C@@H](CC[C@]5(C)[C@@H]4CC[C@]4(C)c6c(C(O)C(=O)O)ccc(O)c6C[C@@H]54)[C@]3(C)CC[C@@H]12 (stereo partly drawn) [HALICLOIC ACID A] | 5.00 |
| CC1(C)CCC[C@]2(C)O[C@H]3CC[C@@]4(C)[C@@H](CC[C@]5(C)[C@@H]4CC[C@]4(C)c6c(C=O)ccc(O)c6C[C@@H]54)[C@]3(C)CC[C@@H]12 | 4.28 |
| CC1=CCC[C@@H](C)[C@]1(C)CC[C@@]1(C)[C@@H]2CC[C@]3(C)[C@H](CC[C@]4(C)c5c(C=O)ccc(O)c5C[C@@H]34)[C@@]2(C)CC[C@@H]1O | 4.54 |
| CC1=CCC[C@@H](C)[C@]1(C)CC[C@@]1(C)[C@@H]2CC[C@]3(C)[C@H](CC[C@]4(C)c5c(C(O)C(=O)O)ccc(O)c5C[C@@H]34)[C@@]2(C)CC[C@@H]1O (relative stereo) | 4.96 |
